# Measured values as given in PMC10766536 (The Journal of Antibiotics, 2023).
# Entries after “also recorded” stand apart in the source; their conditions may differ.
# Key:
# [1] = system: S. aureus MRSA strain N315; test: S. aureus IV advanced disseminated infection mouse model, kidney burden; assay type: in vivo, Balb/c mice
# Procedure: (§1) S. aureus MSRA strain NRS384 or N315 (BEI Resources), where indicated, was grown overnight in TSB and sub-cultured to mid-logarithmic phase. […] From 1 to 3 days post-infection, indicated mice were injected subcutaneously with 110 mg/kg vancomycin twice daily where indicated. […] Mice were monitored for weight loss and body conditioning score throughout the infection. At 4 days post-infection, mice were euthanized, and the S. aureus kidney burden was quantified by tissue homogenization followed by enumeration of cfu through serial dilution in PBS and plating onto TSA plates. Data points represent the kidney burden from individual mice tested. Statistical analysis was conducted with GraphPad Prism 9, Version 9.4.1.
# [2] = system: S. aureus MRSA strain NRS384; test: as above; assay type: in vivo, Balb/c mice; conditions: for S. aureus kidney burden, efficacy: NRS384
# Procedure: as §1
# [3] = system: Sprague Dawley rats; test: 2-week IV once-a-day toxicity study with 2-week recovery in Sprague Dawley rats
# Procedure: A subset from each dose group was maintained for 14 days after the last dose to evaluate delayed toxicity and/or recovery. All animals were observed twice daily for mortality and signs of pain or distress. Detailed clinical observations, body weight measurements and food consumption were conducted weekly; post dose observations (30 min post dose) were conducted daily or as required. Clinical pathology evaluations (hematology, coagulation parameters, and serum chemistry) were performed using samples collected on the day of scheduled sacrifice (main and recovery). At the end of the 14-day dosing period, and at the end of the 14-day recovery period, necropsies were performed on all animals, selected organs were weighed, and tissues were examined macroscopically and microscopically. Toxicokinetic parameters were evaluated on Day 1 and 14.
# [4] = biological target: hERG (Homo sapiens, UniProt Q12809); test: in vitro
# Chain of hERG (Q12809 whole entry): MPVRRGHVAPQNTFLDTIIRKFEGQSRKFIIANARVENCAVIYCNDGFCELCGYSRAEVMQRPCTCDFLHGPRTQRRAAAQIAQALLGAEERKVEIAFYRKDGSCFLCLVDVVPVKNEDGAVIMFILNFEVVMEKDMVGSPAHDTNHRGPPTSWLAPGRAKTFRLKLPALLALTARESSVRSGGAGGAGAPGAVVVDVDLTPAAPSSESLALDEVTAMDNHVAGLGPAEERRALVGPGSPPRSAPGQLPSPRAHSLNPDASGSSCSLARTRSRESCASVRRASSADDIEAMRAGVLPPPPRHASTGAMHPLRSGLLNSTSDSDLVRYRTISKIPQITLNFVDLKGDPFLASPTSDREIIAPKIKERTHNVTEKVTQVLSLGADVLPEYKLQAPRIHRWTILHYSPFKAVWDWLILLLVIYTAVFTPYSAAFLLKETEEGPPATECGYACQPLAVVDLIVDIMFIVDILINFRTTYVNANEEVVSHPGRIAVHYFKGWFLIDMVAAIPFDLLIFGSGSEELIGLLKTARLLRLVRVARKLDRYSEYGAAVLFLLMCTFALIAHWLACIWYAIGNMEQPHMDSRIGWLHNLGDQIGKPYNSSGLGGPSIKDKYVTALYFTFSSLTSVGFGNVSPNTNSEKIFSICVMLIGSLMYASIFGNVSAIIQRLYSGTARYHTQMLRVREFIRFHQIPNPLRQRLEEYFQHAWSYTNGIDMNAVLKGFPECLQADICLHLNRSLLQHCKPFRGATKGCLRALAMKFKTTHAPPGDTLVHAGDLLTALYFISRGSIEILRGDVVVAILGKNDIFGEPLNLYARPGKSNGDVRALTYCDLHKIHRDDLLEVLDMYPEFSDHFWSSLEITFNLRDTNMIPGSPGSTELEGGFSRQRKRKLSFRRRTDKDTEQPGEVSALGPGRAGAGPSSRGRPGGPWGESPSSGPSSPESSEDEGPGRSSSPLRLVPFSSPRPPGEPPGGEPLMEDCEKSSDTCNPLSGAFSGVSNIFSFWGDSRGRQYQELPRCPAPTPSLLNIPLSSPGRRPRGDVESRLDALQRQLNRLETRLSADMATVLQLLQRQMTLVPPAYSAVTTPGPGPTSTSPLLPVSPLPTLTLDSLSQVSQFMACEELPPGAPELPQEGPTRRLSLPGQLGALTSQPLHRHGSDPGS
# [5] = system: S. aureus NRS384; test: S. aureus intracellular killing assay in THP-1 macrophages; assay type: cell-based; conditions: S. aureus NRS384 in THP-1 macrophages, 2 h, top conc. 1e−6 M
# Procedure: (§2) THP-1 monocytic cell line (American Type Culture Collection) was grown in media (RPMI + 10% FBS + 1% Penicillin/Streptomycin), then seeded at a density of 1e5 cells/well in a 96 well plate and differentiated into macrophages for 3 days prior to infection using 200 nM PMA. Overnight culture of S. aureus or S. typhimurium was grown in RPMI or TSB, respectively, washed twice with PBS and resuspended at 1e7 cfu/ml in PBS. THP-1 were washed with warm media (RMPI without FBS) to remove the Penicillin/Streptomycin and then infected with the bacterial suspension at a multiplicity of infection of 10:1 (S. aureus:macrophages) or 5:1 (S. typhimurium:macrophages). Plates were centrifuged at 300 × g for 5 min to synchronize adhesion of the bacteria to the macrophages, then incubated at 37 °C for 2 h for S. aureus infection or 1 h for S. typhimurium infection. Free-floating bacteria were removed by washing twice with warm media and the remaining extracellular bacteria were killed by addition of media containing gentamicin (50 ug/ml). After 1 h, media was aspirated and the indicated compound was added to the S. aureus-infected macrophages in a dilution series starting at 1e−6 M, with 1:5 dilutions for 6 points (1.0 × 10^−6 M, 2.0 × 10^−7 M, 4.0 × 10^−8 M, 8.0 × 10^−9 M, 1.6 × 10^−9 M, and 3.2 × 10^−10 M) or to the to the S. typhimurium-infected macrophages in a dilution series starting at 1e−4 M, with 1:3 dilutions followed by 1:10 dilutions for 6 points (1.0 × 10^−4 M, 3.0 × 10^−5 M, 1.0 × 10^−5 M, 1.0 × 10^−6 M, 1.0 × 10^−7 M, and 1.0 × 10^−8 M). The compounds were added in media containing 50 µg/ml gentamicin to prevent extracellular growth of bacteria. After 2 h, plates were washed twice with warm RPMI without FBS, and 100 μl of THP-1 lysis buffer (0.1% Triton in PBS) was added to each well. Bacterial survival was enumerated by colony forming units (cfu) through serial dilution and plating onto tryptic soy agar (TSA, Teknova) plates.
# [6] = human
# [7] = system: S. aureus NRS384; test: S. aureus broth killing (growth inhibition) assay; conditions: S. aureus NRS384, TSB, 24 h, OD600
# Text: (§3) To test the potency of rifamycin analogs of the disclosure in vitro, a broth growth inhibition assay was developed.
# [8] = system: Caco-2: endogenous transporters; test: Caco-2 permeability
# [9] = system: Salmonella typhimurium ATCC 14028; test: S. typhimurium broth killing (growth inhibition) assay; conditions: Salmonella typhimurium ATCC 14028, TSB, 24 h
# Text: as §3
# [10] = biological target: MDCK-MDR1: overexpression of Pgp (Homo sapiens, UniProt P08183); test: MDCK-MDR1 permeability and efflux
# Chain of MDCK-MDR1: overexpression of Pgp (P08183 whole entry): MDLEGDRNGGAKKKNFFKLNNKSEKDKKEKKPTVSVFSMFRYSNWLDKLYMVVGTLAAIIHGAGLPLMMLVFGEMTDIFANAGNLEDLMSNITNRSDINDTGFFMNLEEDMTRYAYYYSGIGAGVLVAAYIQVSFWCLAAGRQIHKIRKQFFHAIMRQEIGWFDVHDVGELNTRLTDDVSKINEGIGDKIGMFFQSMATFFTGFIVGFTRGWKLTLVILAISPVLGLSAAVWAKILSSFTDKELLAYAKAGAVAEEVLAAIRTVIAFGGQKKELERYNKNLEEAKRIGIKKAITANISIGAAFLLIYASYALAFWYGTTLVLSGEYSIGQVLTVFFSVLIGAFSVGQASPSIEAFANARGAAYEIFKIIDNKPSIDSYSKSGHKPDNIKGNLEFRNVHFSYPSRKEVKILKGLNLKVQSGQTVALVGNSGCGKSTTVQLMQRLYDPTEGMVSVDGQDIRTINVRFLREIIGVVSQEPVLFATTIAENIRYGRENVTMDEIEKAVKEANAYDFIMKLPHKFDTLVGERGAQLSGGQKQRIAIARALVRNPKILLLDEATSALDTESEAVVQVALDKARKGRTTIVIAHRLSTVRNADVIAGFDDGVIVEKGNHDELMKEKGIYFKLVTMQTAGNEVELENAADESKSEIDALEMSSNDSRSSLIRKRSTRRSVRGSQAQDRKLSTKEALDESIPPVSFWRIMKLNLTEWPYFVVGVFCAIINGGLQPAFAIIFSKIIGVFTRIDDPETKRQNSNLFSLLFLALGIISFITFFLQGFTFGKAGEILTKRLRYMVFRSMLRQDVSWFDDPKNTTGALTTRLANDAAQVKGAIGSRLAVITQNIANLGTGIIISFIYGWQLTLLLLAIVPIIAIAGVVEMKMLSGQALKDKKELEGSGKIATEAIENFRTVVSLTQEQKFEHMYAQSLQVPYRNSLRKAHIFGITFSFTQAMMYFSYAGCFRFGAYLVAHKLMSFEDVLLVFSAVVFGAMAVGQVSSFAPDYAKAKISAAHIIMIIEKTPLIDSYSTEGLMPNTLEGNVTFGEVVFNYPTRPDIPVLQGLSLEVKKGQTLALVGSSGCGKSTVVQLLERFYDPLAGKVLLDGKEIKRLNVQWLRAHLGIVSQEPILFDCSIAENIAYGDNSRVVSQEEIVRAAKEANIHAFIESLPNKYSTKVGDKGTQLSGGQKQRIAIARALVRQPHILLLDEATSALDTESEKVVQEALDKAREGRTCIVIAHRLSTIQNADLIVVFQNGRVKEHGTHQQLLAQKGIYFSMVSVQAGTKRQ
# [11] = in vitro; conditions: CD-1, mouse
# [12] = in vitro; conditions: SD, rat
# [13] = system: Salmonella typhimurium AR-0031; test: S. typhimurium broth killing (growth inhibition) assay; conditions: Salmonella typhimurium AR-0031, TSB, 24 h
# Text: as §3
# [14] = system: Salmonella typhimurium AR-0031; test: S. typhimurium intracellular killing assay in THP-1 macrophages; assay type: cell-based; conditions: Salmonella typhimurium AR-0031 in THP-1 macrophages, top conc. 1e−4 M
# Procedure: as §2
# [15] = system: Salmonella typhimurium ATCC 14028; test: as above; assay type: cell-based; conditions: Salmonella typhimurium ATCC 14028 in THP-1 macrophages, top conc. 1e−4 M
# Procedure: as §2
# [16] = biological target: P-gp (MDR1) (Homo sapiens, UniProt P08183); test: in vitro; conditions: dog, MDCK-MDR1
# Chain of P-gp (MDR1) (P08183 whole entry): as above
# [17] = Compound stability in CYP induction assay
# [18] = Human plasma protein binding
# [19] = system: endogenous transporters; test: in vitro; conditions: human, Caco-2
# [20] = in vitro; conditions: human, Caco-2
# [21] = system: CYP3A4; test: in vitro; conditions: human
# [22] = system: CYP2B6; test: in vitro; conditions: human
# [23] = system: CYP1A2; test: in vitro; conditions: human
# [24] = 25 mg/kg in combination with vancomycin
compound,measurement,setting,value
"CN[C@H](CC(C)C)C(=O)N[C@H]1C(=O)N[C@@H](CC(N)=O)C(=O)N[C@H]2C(=O)N[C@H]3C(=O)N[C@H](C(=O)N[C@H](C(=O)O)c4cc(O)cc(O)c4-c4cc3ccc4O)[C@H](O)c3ccc(c(Cl)c3)Oc3cc2cc(c3O[C@@H]2O[C@H](CO)[C@@H](O)[C@H](O)[C@H]2O[C@H]2C[C@](C)(N)[C@H](O)[C@H](C)O2)Oc2ccc(cc2Cl)[C@H]1O [Vancomycin, reference compound]",reduction in S. aureus kidney burden,"[1]; vancomycin alone, 110 mg/kg sc twice daily",~ 4 log
same,reduction in S. aureus kidney burden,"[2]; vancomycin alone, 110 mg/kg sc twice daily days 1-3, NRS384, day 4",2–3 log
same,"hematology changes (red cell mass decrease, neutrophil decrease, platelet increase)","[3]; males given vancomycin alone 110 mg/kg/day, end of treatment",also noted in males given vancomycin alone
same,"body weight, body weight gains, food consumption changes","[3]; rat, IV QD 14 days, alone or in combination with vancomycin","no body weight, body weight gains, or food consumption changes"
COc1cc(N)c(Cl)cc1C(=O)NC1CCN(CCCOc2ccc(F)cc2)CC1OC (centres unmarked) [Cisapride],inhibition at 0.09 µM,[4],87.6%
"CO[C@H]1/C=C/O[C@@]2(C)Oc3c(C)c(O)c4c(O)c(c(/C=N/N5CCN(C)CC5)c(O)c4c3C2=O)NC(=O)/C(C)=C\C=C\[C@H](C)[C@H](O)[C@@H](C)[C@@H](O)[C@@H](C)[C@H](OC(C)=O)[C@@H]1C [Compound 1, rifampicin]",S. aureus kidney burden,[1]; [24],to or near the limit of detection
same,"S. aureus kidney burden, efficacy",[2]; [24],effective; also recorded: reduced kidney burden
same,"S. aureus kidney burden, efficacy",[2]; 25 mg/kg monotherapy,ineffective
same,"S. aureus kidney burden, efficacy",[2]; doses lower than 0.25 mg/kg in combination with vancomycin,efficacy was reduced to vancomycin alone levels
same,Intracellular MIC,[5],1000 nM
same,% Recovery (vs. T0 stability),[6],81.9%
same,Broth MIC,[7],15.6 nM
same,Mean B-A % Recovery,[8],80.80%
same,Broth MIC,[9],16 µM
same,Mean B-A % Recovery,[10],74.40%
same,CLint scaled,[11]; S9 microsomes,< 45.5 mL/min/kg
same,remaining at 2 h,[11]; S9 microsomes,125%
same,CLint scaled,[12]; S9 microsomes,< 23.4 mL/min/kg
same,remaining at 2 h,[12]; S9 microsomes,129%
same,Broth MIC,[13],16 µM
same,Intracellular MIC,[14],No activity
same,Intracellular MIC,[15],No activity
same,Papp A→B,[16],0.287 ×10⁻⁶ cm/s
same,Papp B→A,[16],6.25 ×10⁻⁶ cm/s
same,recovery,[16],76.5%
same,Average % Stability,[17],85.2%
same,% Protein Bound,[18],79.1 ± 0.6%
same,% Protein Free,[18],20.9 ± 0.6%
same,% Matrix Stability (6 h),[18],74.3%
same,recovery,[19],79.5%
same,Papp A→B,[20],0.589 ×10⁻⁶ cm/s
same,Papp B→A,[20],5.93 ×10⁻⁶ cm/s
CO[C@H]1/C=C/O[C@@]2(C)Oc3c(C)c(O)c4c(c3C2=O)C2=NC3(CCN(CC(C)C)CC3)NC2=C(NC(=O)/C(C)=C\C=C\[C@H](C)[C@H](O)[C@@H](C)[C@@H](O)[C@@H](C)[C@H](OC(C)=O)[C@@H]1C)C4=O [Rifabutin],% Recovery (vs. T0 stability),[6],98.2%
same,Mean B-A % Recovery,[8],59.10%
same,fold induction,[21],2.36
same,Mean A-B % Recovery,[10],91.30%
same,Mean B-A % Recovery,[10],67.90%
same,CLint scaled,[11]; s9,219 mL/min/kg
same,half-life,[11]; s9,25 min
same,remaining at 2 h,[11]; s9,4.6%
same,CLint scaled,[12]; s9,2.35 mL/min/kg
same,half-life,[12]; s9,1200 min
same,remaining at 2 h,[12]; s9,89%
same,fold induction,[22],2.65
same,Papp A→B,[16],3.57 ×10⁻⁶ cm/s
same,Papp B→A,[16],16.8 ×10⁻⁶ cm/s
same,efflux ratio,[16],4.7
same,Average % Stability,[17],77.8%
same,% Protein Bound,[18],89.6 ± 0.5%
same,% Protein Free,[18],10.4 ± 0.5%
same,% Matrix Stability (6 h),[18],104.9%
same,fold induction,[23],2
same,recovery,[19],64.8%
same,Papp A→B,[20],11 ×10⁻⁶ cm/s
same,Papp B→A,[20],7.15 ×10⁻⁶ cm/s
same,efflux ratio,[20],0.648
CNCCOc1ccc2nc3c4c5c6c(C)c(O)c4c(=O)c(c-3oc2c1)NC(=O)C(C)=CC=CC(C)C(O)C(C)C(O)C(C)C(OC(C)=O)C(C)C(OC)C=COC(C)(O6)C5=O (centres unmarked) [Compound 3],Intracellular MIC,[5],1000 nM
same,Broth MIC,[7],45.7 nM
COC1C=COC2(C)Oc3c(C)c(O)c4c(=O)c(c5oc6cc(OCCN)ccc6nc-5c4c3C2=O)NC(=O)C(C)=CC=CC(C)C(O)C(C)C(O)C(C)C(OC(C)=O)C1C (centres unmarked) [Compound 2],Intracellular MIC,[5],1000 nM
same,Broth MIC,[7],412 nM
COC1C=COC2(C)Oc3c(C)c(O)c4c(=O)c(c5oc6ccc(OCCN(C)C)cc6nc-5c4c3C2=O)NC(=O)C(C)=CC=CC(C)C(O)C(C)C(O)C(C)C(OC(C)=O)C1C (centres unmarked) [Compound 6],Intracellular MIC,[5],1000 nM
same,Broth MIC,[7],62.5 nM
